Laboratory results published in patent US20150344457A1, “METHODS OF INHIBITING PRMT5” (EPIZYME, INC., priority 2012, published 2015).
pIC50: −log10 of the molar value. Read-outs that look alike come from different tables or passages of the source.

Molecular target: T1, PRMT5/MEP50 (Homo sapiens, UniProt O14744)
T1 construct: Expressed full-length human Flag-PRMT5/6His-MeP50 protein complex was purified; made in house; host or cells: Spodoptera frugiperda (SF9) insect cells, baculovirus (pDEST8)
T1 sequence (O14744 with tags, fused parts or gaps): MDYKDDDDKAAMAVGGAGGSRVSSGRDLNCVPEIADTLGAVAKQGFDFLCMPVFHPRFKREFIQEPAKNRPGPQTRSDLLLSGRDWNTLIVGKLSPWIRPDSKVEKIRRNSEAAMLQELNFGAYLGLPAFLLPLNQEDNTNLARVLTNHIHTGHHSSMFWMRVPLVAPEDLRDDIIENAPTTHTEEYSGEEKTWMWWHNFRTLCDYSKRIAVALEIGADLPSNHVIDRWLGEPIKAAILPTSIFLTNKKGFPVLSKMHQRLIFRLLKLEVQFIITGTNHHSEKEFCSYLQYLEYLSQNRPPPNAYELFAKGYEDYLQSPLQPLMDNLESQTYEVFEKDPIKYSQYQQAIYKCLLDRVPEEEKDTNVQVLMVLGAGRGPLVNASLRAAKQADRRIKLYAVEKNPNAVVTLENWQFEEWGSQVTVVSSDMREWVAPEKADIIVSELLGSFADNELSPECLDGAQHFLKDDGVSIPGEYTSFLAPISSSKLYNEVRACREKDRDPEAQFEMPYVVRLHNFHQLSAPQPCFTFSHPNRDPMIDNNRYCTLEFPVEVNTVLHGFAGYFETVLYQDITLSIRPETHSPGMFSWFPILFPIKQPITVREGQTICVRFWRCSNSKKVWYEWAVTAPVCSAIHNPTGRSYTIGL
T1 sequence (Q9BQA1 with tags, fused parts or gaps partner limits assumed): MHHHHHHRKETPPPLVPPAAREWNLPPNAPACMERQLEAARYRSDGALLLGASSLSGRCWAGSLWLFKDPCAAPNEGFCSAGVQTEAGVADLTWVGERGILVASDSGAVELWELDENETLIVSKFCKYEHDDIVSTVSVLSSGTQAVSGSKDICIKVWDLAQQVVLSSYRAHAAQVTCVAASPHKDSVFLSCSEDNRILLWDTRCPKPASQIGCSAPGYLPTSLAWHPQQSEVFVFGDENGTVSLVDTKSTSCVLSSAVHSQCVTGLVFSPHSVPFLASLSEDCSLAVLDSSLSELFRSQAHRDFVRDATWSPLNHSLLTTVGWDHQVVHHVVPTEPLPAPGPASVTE
Experiment: PRMT5 Biochemical Assay (PRMT5/MEP50 enzyme assay on peptide substrate, 3H-SAM Flashplate)
Details: read-out: Biochemical IC50
Source text: S-adenosylmethionine (SAM), S-adenosylhomocysteine (SAH), bicine, KCl, Tween20, dimethylsulfoxide (DMSO), bovine skin gelatin (BSG), and Tris(2-carboxyethyl)phosphine hydrochloride solution (TCEP) were purchased from Sigma-Aldrich at the highest level of purity possible. ^3H-SAM was purchase from American Radiolabeled Chemicals with a specific activity of 80 Ci/mmol 384-well streptavidin Flashplates were purchased from PerkinElmer.
Peptide representative of human histone H4 residues 1-15 was synthesized with a C-terminal linker-affinity tag motif and a C-terminal amide cap by 21st Century Biochemicals. […] The sequence was Ac-[…][K-Biot]-amide (SEQ ID NO.:3).
Full-length human MEP50 (NM_024102) clone was amplified from a human testis cDNA library incorporating a 5′ sequence encoding a 6-histidine tag (MHHHHHH) (SEQ ID NO.:5) fused directly to Arg 2 of MEP50. The amplified genes were sublconed into pENTR/D/TEV (Life Technologies) and subsequently transferred by Gateway™ attL×attR recombination to pDEST8 baculvirus expression vector (Life Technologies).
Recombinant baculovirus and Baculovirus-Infected Insect Cells (BIIC) were generated according to Bac-to-Bac kit instructions (Life Technologies) and Wasilko, 2006, respectively. Protein over-expression was accomplished by infecting exponentially growing Spodoptera frugiperda (SF9) cell culture at 1.2×10^6 cell/ml with a 5000 fold dilution of BIIC stock. Infections were carried out at 27° C. for 72 hours, harvested by centrifugation, and stored at −80° C. for purification.
Flag-PRMT5/6His-MeP50 was eluted with 300 mM Imidazole in the same buffer. […] Reference: Wasilko, D. J. and S. E. Lee: “TIPS: titerless infected-cells preservation and scale-up” Bioprocess J., 5 (2006), pp. 29-32.
General Procedure for PRMT5/MEP50 Enzyme Assays on Peptide Substrates.
The assays were all performed in a buffer consisting of 20 mM Bicine (pH=7.6), 1 mM TCEP, 0.005% BSG, and 0.002% Tween20, prepared on the day of use. Compounds in 100% DMSO (1 ul) were spotted into a polypropylene 384-well V-bottom plates (Greiner) using a Platemate Plus outfitted with a 384-channel head (Thermo Scientific). DMSO (1 ul) was added to Columns 11, 12, 23, 24, rows A-H for the maximum signal control and 1 ul of SAH, a known product and inhibitor of PRMT5/MEP50, was added to columns 11, 12, 23, 24, rows I-P for the minimum signal control. A cocktail (40 ul) containing the PRMT5/MEP50 enzyme and the peptide was added by Multidrop Combi (Thermo-Fisher). The compounds were allowed to incubate with PRMT5/MEP50 for 30 min at 25 degrees Celsius, then a cocktail (10 ul) containing ^3H-SAM was added to initiate the reaction (final volume=51 ul). The final concentrations of the components were as follows: PRMT5/MEP50 was 4 nM, ^3H-SAM was 75 nM, peptide was 40 nM, SAH in the minimum signal control wells was 100 uM, and the DMSO concentration was 1%. The assays were stopped by the addition of non-radioactive SAM (10 ul) to a final concentration of 600 uM, which dilutes the ^3H-SAM to a level where its incorporation into the peptide substrate is no longer detectable. 50 ul of the reaction in the 384-well polypropylene plate was then transferred to a 384-well Flashplate and the biotinylated peptides were allowed to bind to the streptavidin surface for at least 1 hour before being washed three times with 0.1% Tween20 in a Biotek ELx405 plate washer. The plates were then read in a PerkinElmer TopCount plate reader to measure the quantity of ^3H-labeled peptide bound to the Flashplate surface, measured as disintegrations per minute (dpm) or alternatively, referred to as counts per minute (cpm).
where dpm=disintegrations per minute, cmpd=signal in assay well, and min and max are the respective minimum and maximum signal controls.
where top and bottom are the normally allowed to float, but may be fixed at 100 or 0 respectively in a 3-parameter fit.

[1] = PRMT5 biochemical assay, Table C-2

pIC50 [1] | pIC50 (Table D-2) | Structure (SMILES)
4.30 to 5.00 | – | Cc1cccc(N2CCN(CC(O)CN3CCc4ccccc4C3)C(=O)C2)c1 (centres unmarked) [Compound C3]
> 7.00 | – | O=C1CN(c2cccc3cccnc23)CCN1CC(O)CN1CCc2ccccc2C1 (centres unmarked) [Compound C4]
> 7.00 | – | O=C1CN(c2cccc(Cl)c2)CCN1CC(O)CN1CCc2ccccc2C1 (centres unmarked) [Compound C5]
> 7.00 | – | O=C1CN(c2cccc(F)c2)CCN1CC(O)CN1CCc2ccccc2C1 (centres unmarked) [Compound C6]
> 7.00 | – | O=C1CN(c2ccc(Cl)cc2)CCN1CC(O)CN1CCc2ccccc2C1 (centres unmarked) [Compound C7]
> 7.00 | – | O=C1CN(c2cncc(N3CCOCC3)c2)CCN1CC(O)CN1CCc2ccccc2C1 (centres unmarked) [Compound C8]
6.00 to 7.00 | – | O=C1CN(c2ccccc2Cl)CCN1CC(O)CN1CCc2ccccc2C1 (centres unmarked) [Compound C9]
> 7.00 | – | O=C1CN(c2cccc(N3CCOCC3)c2)CCN1CC(O)CN1CCc2ccccc2C1 (centres unmarked) [Compound C12]
6.00 to 7.00 | – | Cc1ccc(N2CCN(CC(O)CN3CCc4ccccc4C3)C(=O)C2)cc1 (centres unmarked) [Compound C15]
5.00 to 6.00 | – | O=C1CC(c2ccccc2)CCN1C[C@H](O)CN1CCc2ccccc2C1 (some centres unmarked) [Compound C16]
5.00 to 6.00 | – | O=C1CC(c2ccccc2)CCN1C[C@@H](O)CN1CCc2ccccc2C1 (some centres unmarked) [Compound C17]
5.00 to 6.00 | – | O=c1cc(Nc2ccccc2)ccn1C[C@H](O)CN1CCc2ccccc2C1 [Compound C18]
6.00 to 7.00 | – | O=c1cc(Nc2ccccc2)ccn1C[C@H](O)CN1CCc2ccccc2C1 [Compound C19]
6.00 to 7.00 | – | O=C1CN(c2ccc(CO)cc2)CCN1CC(O)CN1CCc2ccccc2C1 (centres unmarked) [Compound C20]
5.00 to 6.00 | – | CC(=O)N1CCN(CC(O)CN2CCc3ccccc3C2)C(=O)C1 (centres unmarked) [Compound C21]
5.00 to 6.00 | – | CS(=O)(=O)N1CCN(CC(O)CN2CCc3ccccc3C2)C(=O)C1 (centres unmarked) [Compound C22]

pIC50 [1] | pIC50 (Table D-2) | Structure (SMILES)
5.00 to 6.00 | – | O=C1CN(C2CCOCC2)CCN1CC(O)CN1CCc2ccccc2C1 (centres unmarked) [Compound C23]
5.00 to 6.00 | – | O=C1CN(Cc2ccccc2)CCN1CC(O)CN1CCc2ccccc2C1 (centres unmarked) [Compound C24]
5.00 to 6.00 | – | O=C1CN(Cc2ccccn2)CCN1CC(O)CN1CCc2ccccc2C1 (centres unmarked) [Compound C25]
5.00 to 6.00 | – | O=C1CN(Cc2cccnc2)CCN1CC(O)CN1CCc2ccccc2C1 (centres unmarked) [Compound C26]
< 4.30 | – | CN1CCN(CC(O)CN2CCc3ccccc3C2)C(=O)C1 (centres unmarked) [Compound C27]
5.00 to 6.00 | – | O=C1COCCN1CC(O)CN1CCc2ccccc2C1 (centres unmarked) [Compound C28]
6.00 to 7.00 | – | CN(C)c1ccccc1N1CCN(C[C@H](O)CN2CCc3ccccc3C2)C(=O)C1 [Compound C29]
5.00 to 6.00 | – | CN(C)c1ccc(N2CCN(C[C@H](O)CN3CCc4ccccc4C3)C(=O)C2)cc1 [Compound C30]
6.00 to 7.00 | – | O=C1COc2ccccc2N1CC(O)CN1CCc2ccccc2C1 (centres unmarked) [Compound C31]
< 5.00 | – | O=C(NC1CCOCC1)C1CC(=O)N(CC(O)CN2CCc3ccccc3C2)C1 (centres unmarked) [Compound C32]
– | 5.00 to 6.00 | OC(COC1CCCN(c2ccccc2)C1)CN1CCc2ccccc2C1 (centres unmarked) [Compound D2]
– | 6.00 to 7.00 | OC(COc1ccc(OCC(O)CN2CCc3ccccc3C2)cc1)CN1CCc2ccccc2C1 (centres unmarked) [Compound D3]
– | 6.00 to 7.00 | OC(COc1cccc(CNC2CCCCC2)c1)CN1CCc2ccccc2C1 (centres unmarked) [Compound D4]
– | 6.00 to 7.00 | OC(COc1cccc(CNC2CCOCC2)c1)CN1CCc2ccccc2C1 (centres unmarked) [Compound D5]
– | 6.00 to 7.00 | OC(COc1cccc(CNc2cc[nH]n2)c1)CN1CCc2ccccc2C1 (centres unmarked) [Compound D6]

Structure (SMILES) | pIC50 [1] | pIC50 (Table D-2)
OC(COc1ccccc1N1CCNCC1)CN1CCc2ccccc2C1 (centres unmarked) [Compound D7] | – | 4.40 to 5.00
